Laboratory results from US7109012B2, “Recombinant lysophosphatidic acid phosphatase” (Azwell Inc., priority 1998, dated 2006).

Assays:
Type in all cases: biochemical
[1] = target: T1, bovine LPA phosphatase (Bos taurus, UniProt A6H757); test: Substrate specificity, free phosphate quantified by molybdate/ascorbic acid absorbance at 795 nm; conditions: 37° C., 15 minutes, pH 7.5
T1 construct: from tissue; host or cells: bovine brain, cytosol fraction
T1 sequence (A6H757 33-429): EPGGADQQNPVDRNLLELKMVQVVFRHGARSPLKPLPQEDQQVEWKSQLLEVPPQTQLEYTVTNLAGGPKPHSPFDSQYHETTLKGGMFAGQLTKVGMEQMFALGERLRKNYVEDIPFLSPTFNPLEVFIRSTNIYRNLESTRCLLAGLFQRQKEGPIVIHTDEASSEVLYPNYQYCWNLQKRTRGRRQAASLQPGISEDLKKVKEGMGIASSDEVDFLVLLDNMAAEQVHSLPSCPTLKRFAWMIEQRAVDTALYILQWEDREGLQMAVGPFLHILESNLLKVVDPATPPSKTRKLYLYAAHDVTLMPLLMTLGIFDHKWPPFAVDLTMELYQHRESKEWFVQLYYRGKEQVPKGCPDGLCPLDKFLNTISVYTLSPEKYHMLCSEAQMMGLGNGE
Method: The activity for the LPA Phosphatase was determined in 50 μl of a reaction mixture [50 mM Tris-maleic acid (pH 7.5), 50 μM monooleoyl-[9,10-^3H]-lysophosphatidic acid (5×10^4 dpm), Triton™-X100 at 4-fold molar concentration of the substrate and enzymes at various concentrations]. The above mixture was incubated at 37° C. for 15 minutes, and the enzyme activity was determined by measuring the generated [^3H]monooleoylglycerol.
Each of the enzyme reaction solutions containing various substrates was reacted in the same manner as in Test Example 1, and 25 μl of perchloric acid was added to terminate the reaction. Seventy-five microliters of […], 25 μl of 10% ammonium molybdate and 50 μl of 10% ascorbic acid were further added thereto. The mixed solution was boiled at 95° C. for 5 minutes, and thereafter the absorbance at 795 nm was determined to quantify free phosphate.

[2] = target: T2, Recombinant LPA Phosphatase (Homo sapiens, UniProt Q9NPH0); test: Determination reagent (Reagent a / Reagent b), coupled enzymatic phosphate assay, absorbance at 570 nm; conditions: 5 minutes after Reagent b; for whether assayed by the determination reagent (change in absorbance at 570 nm): 0.2 mmol/l sample, 37° C.
T2 construct: comprises a signal peptide consisting of 40 amino acid residues at N-terminal, and was a novel phosphatase having 421 amino acid residues; 6xHis; made in house; host or cells: E. coli JM109, vector pQE-30
T2 sequence (Q9NPH0 48-428 limits assumed): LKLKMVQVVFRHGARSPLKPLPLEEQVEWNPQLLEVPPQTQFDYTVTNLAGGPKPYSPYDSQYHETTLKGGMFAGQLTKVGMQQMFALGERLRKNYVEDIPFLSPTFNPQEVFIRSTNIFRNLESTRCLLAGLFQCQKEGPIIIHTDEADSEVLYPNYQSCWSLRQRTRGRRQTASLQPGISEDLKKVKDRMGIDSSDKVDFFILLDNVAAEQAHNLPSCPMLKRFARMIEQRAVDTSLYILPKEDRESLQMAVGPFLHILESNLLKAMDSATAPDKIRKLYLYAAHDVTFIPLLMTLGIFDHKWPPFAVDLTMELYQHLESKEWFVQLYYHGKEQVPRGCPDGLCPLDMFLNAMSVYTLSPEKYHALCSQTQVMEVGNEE
Method: The following determination reagents (Reagent a, Reagent b) were prepared.
Each of the various LPAs such as 1-palmitoyl-LPA, 1-stearoyl-LPA, 1-oleoyl-LPA, 2-oleoyl-LPA, 1-linoleoyl-LPA and 1-arachidonoyl-LPA was dissolved in physiological saline containing a surfactant, to prepare a 0.2 mmol/l sample. Two-hundred and forty microliters of Reagent a was added to 8 μl of the sample, and the mixture was reacted at 37° C. for 5 minutes. Thereafter, 80 μl of Reagent b was added thereto, and the mixture was further reacted at 37° C. for 5 minutes. The change in the absorbance at a wavelength of 570 nm for 5 minutes after adding Reagent b was determined using reagent blank as a control.
The absorbance dramatically increases after addition of reagent b, reaching a peak in several minutes. In addition, each of various phospholipids such as 1,2-dipalmitoylphosphatidic acid (1,2-dipalmitoyl-PA), 1-palmitoylphosphatidylethanolamine (1-palmitoyl-LPE), and 1-palmitoylphosphatidylcholine (1-palmitoyl-LPC) was dissolved in physiological saline containing a surfactant, to prepare a 0.2 mmol/l sample. The absorbance was determined by the same procedures.
Further, the change in the absorbance was determined by the same procedures for each of commercially available control sera, 0.2 mM 1-oleoyl-LPA, and one prepared by adding 1-oleoyl-LPA to the commercially available control serum so as to be 0.2 mM. The determination accuracy (%) of LPA was calculated from each of the obtained changes in the absorbance by the following equation: […]

[3] = target: T1, bovine LPA phosphatase; test: Reactivity with [32P]LPA or [32P]PA, radioactivity of the aqueous layer; conditions: enzyme 0-175 ng, substrate 0-100 μM
Excerpt: FIG. 7 is a graph for evaluating the reactivity of bovine LPA phosphatase with [^32P]LPA or [^32P] PA, each being previously purified with TLC.
In order to further confirm in detail the reactivity when 1-oleoyl-LPA and dioleoyl-PA were used as substrates, [^32P]LPA and [^32P]PA were used as substrates, which had been labeled by using [γ-^32P]ATP and E. coli DG kinase [Waggoner, D. W. et al., (1996) J. Biol. Chem. 271, 16506–16509], and purified with TLC previously. Each of the reactions was carried out by varying the enzyme amount (0–175 ng), or varying the concentration of the substrate (0–100 μM). The enzyme reaction was terminated with 100 μl of 0.1 N hydrochloric acid in methanol solution, and 200 μl of chloroform and 1 M magnesium chloride were each added. The mixture was vigorously mixed, and thereafter centrifuged at 1,000×g for 5 minutes. The radioactivity of 175 μl of the aqueous layer was determined to evaluate the enzyme reaction (FIG. 7).

[4] = target: T1, bovine LPA phosphatase; test: Hydrolysis of [3H]1-oleoyl-LPA evaluated by TLC; conditions: 5 nmol substrate, enzyme 0-150 ng
Method: The experiment for the specific activity and the reaction rate, and the like is performed by using the following separation method. Concretely, the above enzyme reaction product (50 μl of a mixture) was lyophilized, and monooleoylglycerol was added as a carrier. Thereafter, the mixture was analyzed by thin-layer chromatography (TLC) using a solvent system of n-butanol/acetic acid/water (30.4/4.8/4.8). The TLC plate was exposed to iodine steam, and spots of the monooleoylglycerol were scraped off, and the radioactivity was determined.
Next, in order to confirm the reactivity with 1-oleoyl-LPA in detail, the enzyme reaction was carried out in the same manner as in Test Example 2 using [^3H]1-oleoyl-LPA (5 nmol, 1×10^5 dpm) as a substrate, and evaluated by TLC (FIG. 6).

Compound | hydrolysis by bovine LPA phosphatase (free phosphate) [1] | further results
phosphatidic acid | did not hydrolyze | 
cardiolipin | did not hydrolyze | 
bisphosphatidic acid | did not hydrolyze | 
CCCCCCCCCCCCCCCC(=O)OC[C@@H](O)COP(=O)([O-])OCC[N+](C)(C)C [LPC, 1-palmitoylphosphatidylcholine] |  | whether assayed by the determination reagent (change in absorbance at 570 nm) [2]: cannot substantially be done
ceramide 1-phosphate | did not hydrolyze | 
O=P(O)(O)OCC(O)CO (stereo not drawn) [glycerol phosphate] | did not hydrolyze | 
Lysophosphatidic acid [LPA] |  | reactivity of bovine LPA phosphatase with 32P-labelled substrate [3]: extremely high reactivity
CCCCCCCCCCCCCCCC(=O)OC[C@H](COP(=O)(O)O)OC(=O)CCCCCCCCCCCCCCC [PA, 1,2-dipalmitoylphosphatidic acid] |  | whether assayed by the determination reagent (change in absorbance at 570 nm) [2]: cannot substantially be done
CCCCCCCC/C=C\CCCCCCCC(=O)OC[C@@H](O)COP(=O)(O)O [1-oleoyl-LPA, 1-oleoyl-lysophosphatidic acid] | strongly hydrolyzed | Changes in Absorbance ([2]; 0.2 mmol/l, 570 nm): 0.0988
CCCCCCCCCCCCC/C=C/[C@@H](O)[C@@H](N)COP(=O)(O)O [sphingosine 1-phosphate] | did not hydrolyze | 
[3H]/C(CCCCCCCC)=C(\[3H])CCCCCCCC(=O)OC[C@@H](O)COP(=O)(O)O [[^3H]1-oleoyl-LPA, monooleoyl-[9,10-^3H]-lysophosphatidic acid] |  | hydrolysis to [3H]1-oleoylglycerol (TLC) [4]: hydrolyzed
